Laboratory results published in US20230130766A1 (SALK INSTITUTE FOR BIOLOGICAL STUDIES, priority 2020, published 2023).

What was measured:
NCI-H460 cells = assay: NCI-H460 xenografts treated with ULK inhibitor alone; assay type: in vivo, nude mice; conditions: 30 mg/kg twice daily
Description: NCI-H460 cells (2.5M cells) were injected bilaterally into the flanks of twenty-four nude mice to create tumor xenografts in order to assess the efficacy of Compound 14 in treating non-small cell lung cancer tumors. After 14 days of letting tumor cells proliferate (at which point tumors had reach ˜200 mm^3 in volume), one cohort of twelve mice was administered 30 mg/kg twice daily doses of Compound 14, and the remaining mice administered vehicle alone. Treatment and monitoring were continued until day 23 post inoculation of tumor cells (9 days of treatment).

ULK1 = molecular target: T1, ULK1 (Homo sapiens, UniProt O75385); assay: ULK1 inhibition assay; assay type: biochemical; conditions: * = tested as a mixture of regioisomers
T1 sequence (O75385 1-1050): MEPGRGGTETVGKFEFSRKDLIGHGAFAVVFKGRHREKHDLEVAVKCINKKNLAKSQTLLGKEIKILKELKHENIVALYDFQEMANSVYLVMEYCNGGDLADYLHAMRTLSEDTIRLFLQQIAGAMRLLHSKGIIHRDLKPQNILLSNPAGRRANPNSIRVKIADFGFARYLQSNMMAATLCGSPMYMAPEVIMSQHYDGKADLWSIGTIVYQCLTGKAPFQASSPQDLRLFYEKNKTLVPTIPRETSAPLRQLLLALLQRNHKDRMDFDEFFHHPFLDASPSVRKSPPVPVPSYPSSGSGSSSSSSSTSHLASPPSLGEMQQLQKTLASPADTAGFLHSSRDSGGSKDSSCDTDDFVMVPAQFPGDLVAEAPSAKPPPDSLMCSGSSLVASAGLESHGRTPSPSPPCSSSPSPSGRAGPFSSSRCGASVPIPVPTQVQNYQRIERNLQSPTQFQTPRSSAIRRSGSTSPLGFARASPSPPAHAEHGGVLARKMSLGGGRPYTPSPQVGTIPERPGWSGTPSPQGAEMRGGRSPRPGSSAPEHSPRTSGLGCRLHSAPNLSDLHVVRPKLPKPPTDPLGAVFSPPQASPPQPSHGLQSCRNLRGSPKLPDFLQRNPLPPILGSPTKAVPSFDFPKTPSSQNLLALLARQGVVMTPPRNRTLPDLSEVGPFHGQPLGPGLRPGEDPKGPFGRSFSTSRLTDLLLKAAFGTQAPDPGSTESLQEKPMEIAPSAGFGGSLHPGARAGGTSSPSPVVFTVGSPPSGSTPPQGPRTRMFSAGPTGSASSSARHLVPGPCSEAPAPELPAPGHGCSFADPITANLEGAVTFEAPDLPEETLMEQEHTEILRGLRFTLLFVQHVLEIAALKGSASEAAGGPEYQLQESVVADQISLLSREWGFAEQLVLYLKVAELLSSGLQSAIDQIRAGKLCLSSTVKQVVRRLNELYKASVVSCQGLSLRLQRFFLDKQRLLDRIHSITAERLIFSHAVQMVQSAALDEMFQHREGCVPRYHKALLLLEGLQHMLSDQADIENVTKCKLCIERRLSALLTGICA

A549 cells = assay: A549 xenografts, ULK inhibitor alone and in combination with carboplatin; assay type: in vivo, nude mice
Description: (§1) A549 cells (5M cells) were injected bilaterally into the flanks of thirty-six nude mice to create tumor xenografts in order to assess the efficacy of Compound 14 in treating non-small cell lung cancer tumors both alone and in combination with carboplatin, the current standard of care therapy for non-small cell lung cancer. After 11 days of letting tumor cells proliferate (at which point tumors were ˜50 mm^3 in volume), administration of carboplatin, Compound 14, or combinations began. One cohort of six mice received 20 mg/kg twice daily doses of Compound 14 alone, one cohort of six mice received 30 mg/kg twice daily doses of Compound 14 alone, one cohort of six mice received 25 mg/kg doses of carboplatin every three days, one cohort of six mice received 20 mg/kg twice daily doses of Compound 14 in conjunction with 25 mg/kg doses of carboplatin every three days, one cohort of six mice received 30 mg/kg twice daily doses of Compound 14 in conjunction with 25 mg/kg doses of carboplatin every three days, and the remaining six mice were treated with vehicle. Treatment and monitoring was continued until day 53 post inoculation of tumor cells (42 days of treatment).

NCI-H358 cells = assay: H358 xenografts treated with ULK inhibitor alone; assay type: in vivo, nude mice; conditions: 30 mg/kg twice daily
Description: NCI-H358 cells (5M cells) were injected bilaterally into the flanks of twenty nude mice to create tumor xenografts in order to assess the efficacy of Compound 14 in treating non-small cell lung cancer tumors. After 32 days of letting tumor cells proliferate (at which point tumors had reach ˜200 mm^3 in volume), one cohort of ten mice was administered 30 mg/kg twice daily doses of Compound 14, and the remaining mice administered vehicle alone. Treatment and monitoring was continued until day 72 post inoculation of tumor cells.

[1] = test system: ULK1, phosphorylated ATG13; assay: Western blot analysis of MIA PaCa-2 xenograft tumors; assay type: in vivo, nude mice; conditions: MIA PaCa-2 xenograft tumors at end of experiment, 20 mg/kg twice daily
Description: MIA PaCa-2 cells were injected bilaterally into the flanks of nude mice to create tumor xenografts in order to assess the efficacy of Compound 14 in treating pancreatic cancer tumors compared to gemcitabine, a current standard of care therapy for pancreatic cancer. After 3 days of letting tumor cells proliferate (at which point tumors were ˜100 mm^3 in volume), administration of gemcitabine or Compound 14 was initiated. One cohort received 20 mg/kg twice daily doses of Compound 14, one cohort received gemcitabine, and the remaining cohort was treated with vehicle. Treatment and monitoring were continued until day 42 post inoculation of tumor cells (30 days of treatment).

[2] = test system: phosphorylated ATG13 (P-ATG); assay: Western blot analysis of A549 xenograft tumors; assay type: in vivo, nude mice; conditions: A549 xenograft tumors at end of study
Description: as §1
At the end of the study, Western blot analysis of the tumors from vehicle and Compound 14 monotherapy cohorts was analyzed.

## CNC(=O)c1ccccc1Nc1nc(Nc2cc(OC)c(OC)c(OC)c2)ncc1Br [Compound 14]
NCI-H460 cells
  % growth of tumor relative to the start of treatment: clear reduction in tumor growth
NCI-H460 cells; 9 days of treatment
  average tumor volume: substantially reduced growth during the monitoring period compared to the control
NCI-H460 cells; after 3 days of treatment
  tumor growth: tumor growth had virtually stopped
NCI-H460 cells; day 9 post treatment
  less tumor mass than vehicle treated mice: ~50%
ULK1
  IC50: < 200 nM
A549 cells; 20 mg/kg twice daily alone, day 53
  final tumor average volume: ~150 mm^3
A549 cells; 30 mg/kg twice daily alone, 42 days of treatment
  average tumor mass at the end of the study: smallest tumors
A549 cells; 30 mg/kg twice daily alone, day 53
  tumor volume at the end of the study: ~50 mm^3
A549 cells; both combinations: Compound 14 20 or 30 mg/kg twice daily with carboplatin 25 mg/kg every three days, 42 days
  average tumor mass at the end of the study: smallest tumors
A549 cells; both combinations: Compound 14 20 or 30 mg/kg twice daily with carboplatin 25 mg/kg every three days, day 53
  tumor volume at the end of the study: ~50 mm^3
A549 cells; monotherapy: carboplatin 25 mg/kg every three days, Compound 14 20 mg/kg twice daily
  tumor growth compared to the control: markedly reduced growth compared to the control
NCI-H358 cells
  % growth of tumor cells relative to the start of treatment: clear reduction in average tumor size
NCI-H358 cells; day 32 to day 72 post inoculation
  average tumor volume: no growth during the monitoring period, and even a decrease in tumor size
NCI-H358 cells; day 35 post treatment
  average tumor mass at the end of the study: substantially smaller overall tumor burden compared to control
[1]
  ULK1 levels in tumor (Western blot): reduced ULK1 levels compared to vehicle treated
  levels of phosphorylated ATG13 in tumor (Western blot): reduced levels of phosphorylated ATG13
[1]; versus vehicle
  total levels of ATG13 in tumor (Western blot): comparable
[2]; 20 mg/kg twice daily monotherapy
  phosphorylated ATG13 in tumors (Western blot): some residual phosphorylated ATG13
[2]; 30 mg/kg twice daily monotherapy
  phosphorylated ATG13 in tumors (Western blot): almost total elimination of phosphorylated ATG13
